We go through 2 molecules from US9207232B2, “Ceramide derivative and Golgi apparatus-labeling fluorescent probe using same” (National University Corporation Chiba University, priority 2011, dated 2015).

Molecules are shown by their SMILES. Values joined by “and” are separate entries in the source; they are usually repeats but may differ in a detail not shown here. Equal entries are not always repeated.

Data set [1] relates to CHO cells. Briefly: Evaluation of cytotoxicity (alteration of cell shape). Type of data set: cell-based, hamster. As to conditions: 10 μM, serum-free medium, cultured one day. As for the experimental part:
As to the compound 9 synthesized in the above, the cytotoxicity was evaluated as the effect on the change in cell morphology.
As the cultured cells, cells obtained by the culture of CHO cells, which is a cell strain derived from the ovary of hamster, in a Ham's F12 medium were used.
Firstly, the CHO cells were seeded into each well of a 24-well plate at 2×10^4 cells/well, and cultured in a Ham's F12(+) medium at 37° C. for one day. After that, in order to eliminate the influence of ceramide, sphingosine, and the like, medium exchange to a medium in which 0.1% BSA and 10 mM HEPES are added into a Ham's F12(−) medium which is a serum-free medium was performed, and in the presence of the compound 9 (10 μM), the culture was further performed for one day. Further, as a negative control, the same experiment was performed with the a NBD-C6-ceramide described in Non Patent Literature 1.

In data set [2] the test system is CHO cells. Briefly: Evaluation of cytotoxicity (changes in cell number). As to conditions: 10 μM; for cell number after addition (24 hours) relative to before addition: before addition = 100%, no additives 170 ± 51%; for cell number after addition (24 hours): serum-free medium, before addition 12,600 cells/well. It is filed as cell-based, hamster. The protocol:
Subsequently, as to the compound 9 synthesized in the above, the cytotoxicity was evaluated as the effect on the change in cell number.
Firstly, the CHO cells were seeded into each well of a 24-well plate at 1×10^4 cells/well, and cultured in a Ham's F12(+) medium at 37° C. for one day. The cell number one day after the culture was 1.26×10^4 cells/well. After that, medium exchange to a medium in which 0.1% BSA and 10 mM HEPES are added into a Ham's F12(−) medium which is a serum-free medium was performed, and in the presence of the compound 9 (10 μM), the culture was further performed for one day. Further, as a negative control, the same experiment was performed with the NBD-C6-ceramide described in Non Patent Literature 1. In addition, the same experiment was also performed for the case of no additives.

The test system of data set [3] is CHO cells. The data set can be described thus: Evaluation of incorporation into cell (fluorescence of organic layer extract). It is filed as cell-based, hamster. As to conditions: 10 μM, 1, 2, 6, 24 or 48 hours at 37° C. The protocol:
Firstly, the CHO cells were seeded into each well of a 24-well plate at 2×10^4 cells/well, and cultured in a Ham's F12(+) medium at 37° C. for one day. After that, medium exchange to a medium in which 0.1% BSA and 10 mM HEPES are added into a Ham's F12(−) medium which is a serum-free medium was performed, and the culture was further performed at 37° C. for 18 hours, then into which the compound 9 (10 μM) was added. After the addition, the resultant mixture was cultured at 37° C. for 1, 2, 6, 24, or 48 hours, and subjected to an assay. Further, as a negative control, the same experiment was performed with the NBD-C6-ceramide. […] Therefore, in this experiment, firstly, the cells were cultured for 18 hours in a serum-free medium, and the incorporation and metabolism of a serum-derived compound were decreased, then the test compound was added, and thus an experimental system was constructed such that the pure incorporation and metabolism of the test compound itself can be measured.
As the assay, firstly, the incorporation of the ceramide derivative (compound 9) into a cell was evaluated. […]
Subsequently, the obtained organic layer sample was added into a 96-well plate, and the fluorescence emission of the ceramide derivative was detected by using an image analyzer (LAS1000, manufactured by FUJIFILM Corporation). […]

The test system of data set [4] is CHO cells. Briefly: Evaluation of intracellular metabolism by TLC. It is filed as in vitro ADME, hamster. Particulars: 10 μM. As for the experimental part: Firstly, the CHO cells were seeded into each well of a 24-well plate at 2×10^4 cells/well, and cultured in a Ham's F12(+) medium at 37° C. for one day. After that, medium exchange to a medium in which 0.1% BSA and 10 mM HEPES are added into a Ham's F12(−) medium which is a serum-free medium was performed, and the culture was further performed at 37° C. for 18 hours, then into which the compound 9 (10 μM) was added. After the addition, the resultant mixture was cultured at 37° C. for 1, 2, 6, 24, or 48 hours, and subjected to an assay. Further, as a negative control, the same experiment was performed with the NBD-C6-ceramide. Herein, ceramide, sphingosine, and the like are contained in the serum, and the incorporation and metabolism of these substances are constantly in progress. Therefore, in this experiment, firstly, the cells were cultured for 18 hours in a serum-free medium, and the incorporation and metabolism of a serum-derived compound were decreased, then the test compound was added, and thus an experimental system was constructed such that the pure incorporation and metabolism of the test compound itself can be measured.
As the assay, firstly, the incorporation of the ceramide derivative (compound 9) into a cell was evaluated. Specifically, cells that had been cultured for a predetermined time in the presence of the compound were washed twice with HBSS (Hank's Balanced Salt Solution: pH 7.4) containing 0.1% BSA and 10 mM HEPES, and then using a cell scraper and 250 μL of HBSS, the cells were detached from the wells. Into the cell extract thus obtained, 500 μL of chloroform, 500 μL of methanol, and 250 μL of water were added, and the cell extract was prepared in two-layer form of an organic layer and an aqueous layer. Further, since the ceramide derivative and other major sphingolipids are compounds that migrate to the organic layer, the cell extract in two-layer form was centrifuged for 10 minutes under the conditions of 3000 rpm at 4° C., and thus only the organic layer was isolated.
On the other hand, as another assay, the metabolism of the ceramide derivative (compound 9) was evaluated. Specifically, 20 μL of the organic layer sample thus obtained above was spotted on a TLC plate, and developed with a development solvent (1-butanol:acetic acid:water=3:1:1), then the intracellular metabolism of the sample was evaluated by using an image analyzer (LAS1000).
Further, by using a free software (Image J), the abundance of each metabolite was converted into a numerical value. The results are shown in E) of FIG. 2 (NBD-C6-ceramide (negative control)), and F) of FIG. 2 (compound 9). In the meantime, the numerical value of each amount of C16-glucosylceramide-NBD-like molecules and C16-sphingomyelin-NBD-like molecules was determined from the mobility in the TLC.

Data set [5] concerns Golgi apparatus in CHO cells. Briefly: Evaluation of localization to the Golgi apparatus (co-staining with BODIPY-TR-Ceramide, confocal laser scanning microscope). As to conditions: 1 μM, 1.5 hours, then BODIPY-TR-Ceramide 5 μM 30 minutes. Type of data set: cell-based, hamster. The protocol: It was evaluated whether or not the localization of the compound 9 into a cell is really due to the localization to the Golgi apparatus. Specifically, BODIPY-TR-Ceramide (Cat D-7540 Red manufactured by Molecular Probes), which is another Golgi marker known to be difficult to be metabolized, was added together with the compound 9 into a cell, and the observation was performed by using a confocal laser scanning microscope.
Firstly, the CHO cells were seeded into each well of a 24-well plate at 0.5×10^4 cells/well, and cultured in a Ham's F12(+) medium at 37° C. for two days. […] After completion of the culture, the cells were washed twice in the same manner as described above, and then the fluorescence emission from the cells was observed. […] In addition, the time course of the cell culture and compound addition is the one recommended by data sheets or previous reports as the time course in which BODIPY-TR-Ceramide can be detected more sensitively. The observation was performed by using a confocal laser scanning microscope, and the measurement of the fluorescence emission from the BODIPY-TR-Ceramide was performed at the maximum excitation wavelength of 598 nm, and the maximum fluorescence wavelength of 617 nm, to measure the “red”. […]

Data set [6] has as its system Golgi apparatus in CHO cells. Briefly: Changes in localization to the Golgi apparatus over time (fluorescence observation). Type of data set: cell-based, hamster. Particulars: 1 μM, 1, 2, 6, 24 or 48 hours at 37° C. As for the experimental part:
Subsequently, it was evaluated whether or not the localization of the compound 9 in the Golgi apparatus can be maintained over a long period of time. Specifically, by the method similar to that described above, the compound 9 or the NBD-C6-ceramide (negative control) (each of both is in 1 μM) was added, then the resultant mixture was cultured at 37° C. for 1, 2, 6, 24, or 48 hours, and the fluorescence (green) derived from the compound was observed.
The upper part of FIG. 4 is a set of pictures showing the results of the observation for the NBD-C6-ceramide (negative control), the pictures were taken by using a photomultiplier tube PMT:430. The middle part of FIG. 4 is a set of pictures showing the results of the observation for the compound 9, the pictures were taken by using a photomultiplier tube PMT:430. The lower part of FIG. 4 is a set of pictures showing the results of the observation for the compound. 9, the pictures were taken by using a photomultiplier tube PMT:500. At this point, the expression of “430” or “500” means detection sensitivity (size of the energy required to detect the emission derived from a compound), and the smaller the value, the higher the sensitivity. […]

A further data set concerns cell. Briefly: Staining of the Golgi apparatus with conventional probe (investigation by the present inventors). As to conditions: cytotoxic effect. It is filed as cell-based. The protocol:
A NBD-C6-ceramide has a cytotoxic effect, therefore, kills a cell itself within 24 hours from the incorporation into the cell, and thus the cell observation cannot be continued anymore. Further, an endogenous ceramide is metabolized into a glucosylceramide by being added with an oligosaccharide in the Golgi apparatus, or metabolized into sphingomyelin by receiving the transfer of phosphocholine from phosphatidylcholine, as a result, the metabolite is sent to cell membrane and becomes a component of the cell membrane. The NBD-C6-ceramide is, in the same manner as in the endogenous ceramide, metabolized to glucosylceramide or sphingomyelin in the Golgi apparatus, and the metabolite is transported to cell membrane from the Golgi in a few hours, therefore, the continuous staining is also difficult in this respect.

The test system of data set [7] is Golgi apparatus in CHO cells. Particulars: 30 minutes after addition, or two hours later when metabolized; J Cell Biol. 1985; cited from earlier work.

With `CCCCCCCCCCCCC/C=C/[C@@H](O)[C@H](CO)NC(=O)CCCCCNc1ccc([N+](=O)[O-])c2nonc12` [NBD-C6-ceramide], the “alteration of cell shape (roundation)” value in the data set on CHO cells [1] is listed as “the alteration of cell shapge (roundation) was observed”. In the data set on CHO cells [2], the “cell number after addition (24 hours) relative to before addition” value is 77% and 77 ± 2%; the “cell number after addition (24 hours)” value is 9,690 ± 260 cells/well. In the data set with CHO cells [3], the “amount incorporated into a cell with the lapse of time” value was “decreased with the lapse of time”. Moreover, in the data set on CHO cells [4], the “fraction that became a metabolite in 6 hours” value is listed as 30%. Further, the “amount of compound after metabolism in 24 hours” value in the data set on CHO cells [4] (24 hours) was “decreased by half”. Further, the “fraction metabolized in 48 hours” value in the data set on CHO cells [4] (48 hours) is reported as around 90%. In addition, in data set [5], the “co-localization with Golgi marker BODIPY-TR-Ceramide” value is recorded as “co-localized with the BODIPY-TR-Ceramide”. For the same molecule, the “fluorescence (emission) intensity in cells with the lapse of time” value in data set [6] was “attenuated with the lapse of time”. The “time from incorporation into the cell until the cell is killed” value with cell is at most 24 h. Moreover, the “retention in the Golgi apparatus after addition into a cell” value in data set [7] is “remains in the Golgi apparatus”.

Turning to `CCCCCCCCCCCCCCCC(=O)N[C@@H](COC(C)=O)[C@H](O)/C=C/CCCCCCCCCNc1ccc([N+](=O)[O-])c2nonc12` [compound 9, (2S,3R)-(E)-3-hydroxy-14-((7-nitrobenzo[c][1,2,5]oxadiazole-4-yl)amino)-2-palmitamide tetradec-4-en-1-yl acetate], the “alteration of cell shape (roundation)” value with CHO cells [1] was “the roundation was not observed”. For the same molecule, the figures for the “cell number after addition (24 hours) relative to before addition” value in the data set with CHO cells [2] and in the data set on CHO cells [2] (listed as Acetyl-C16-ceramide-NBD) were 159% and 159 ± 33%, respectively. Besides, in the data set with CHO cells [2], the “cell number after addition (24 hours)” value is 20,000 ± 4100 cells/well. Moreover, in the data set on CHO cells [3], the “amount incorporated into a cell with the lapse of time” value was “increased with the lapse of time”. The “fraction that became a metabolite in 6 hours” value in the data set with CHO cells [4] was “around 10%”. Besides, the “fraction remaining as it is without being metabolized in 48 hours” value with CHO cells [4] (48 hours) is on record as at least 70%. In addition, in data set [5], the “co-localization with Golgi marker BODIPY-TR-Ceramide” value was “co-localized with the BODIPY-TR-Ceramide”. Besides, the “fluorescence (emission) intensity in cells with the lapse of time” value in data set [6] is “gradually increased with the lapse of time”.
